Reference: paper PMC6466596, “New Chloramphenicol Derivatives from the Viewpoint of Anticancer and Antimicrobial Activity” (Antibiotics, 2019)
Like-named read-outs stand apart in the source and are kept apart here.

Legend:
E. coli 70S ribosome = test: Competition with [14C]-chloramphenicol for binding to the ribosome (filter binding); settings: calculated from IC50 by Cheng–Prusoff; [14C]-CAM constant at 10 μM; read-out: Ki (binding affinity constant)
Experimental: Reassociated 70S ribosomes were prepared from E. coli K12 cells as described previously. 70S ribosomes were incubated in buffer A (100 mM Tris-HCl pH 7.2, 100 mM ammonium acetate, 10 mM magnesium acetate, 6 mM β-mercaptoethanol) with 10 μΜ [^14C]-chloramphenicol (150 dpm/pmol) at a final concentration of 0.20 μM [23]. After incubation for 10 min at 37 °C, the mixture was diluted with 3 mL of cold buffer A and filtered through a 25-mm diameter cellulose nitrate membrane filter (Millipore 0.45 μm pore size). The filter was washed three times with 3 mL of cold buffer A and the radioactivity which remained bound on the filter was measured. The binding of [^14C]-chloramphenicol was studied in competition with CAM or PA–CAM conjugates by keeping the concentration of [^14C]-CAM constant (10 μM) and increasing the concentration of non-radioactive conjugates.
To clarify whether the new PA–CAM conjugates maintain their binding site on the 70S bacterial ribosome, we carried out competition experiments. […] The affinity constants, Ki, were calculated using the following Cheng–Prusoff relationship (1) and their values are presented in Table 3. According to the values of Table 3, the decrease of the affinity for 70S ribosome follows the order 3>7>4>6>CAM>5. (1) Ki=IC50/1+[I]/KD where [I] is the concentration of [^14C]-CAM (constant at 10 μM) and KD is the dissociation constant of ribosome–chloramphenicol complex formation.

Escherichia coli ΔTolC = test: In vivo antibacterial activity (growth inhibition in LB culture, OD560); assay type: cell-based; settings: read-out: EC50 Escherichia coli ΔTolC
Experimental: (§1) The in vivo antibacterial activity of the conjugates was determined using the following three bacterial strains: wild-type Escherichia coli K12 (E. coli K12), Escherichia coli ΔTolC mutant strain (E. coli ΔTolC) lacking the TolC protein, which is involved in the efflux pumps operation, and wild-type Staphylococcus aureus (S. aureus). The anti-tumor activity of the conjugates was assessed using the human ZL34 and MeT5A cell lines, which were kindly offered by Professor G. Stathopoulos (University of Patras). ZL34 are cancer cells, derived from malignant pleural mesothelioma, while MeT5A are immortalized cells, which originate from healthy mesothelial tissue.
(§2) For the experimental procedures, the bacteria were cultured in luria broth (LB) medium (tryptone 10 g/L, yeast extract 5 g/L, NaCl 10 g/L) as previously described. The bacteria cultures were grown in the presence of CAM or each conjugate at increasing concentration (1–100 μM). The cultures were incubated at 37 °C until the absorbance (OD560) of the reference culture in the absence of antibiotic reached the value of 0.7. At this point, the growth of the cultures was terminated by placing them in an ice bath, and the measurement of the optical density followed. These measurements were used to calculate the half-maximal effective concentration (EC50) values.

Staphylococcus aureus = test: as above; assay type: cell-based; settings: read-out: EC50 Staphylococcus aureus
Experimental: as §1, §2

Escherichia coli K12 = test: as above; assay type: cell-based; settings: K12, read-out: EC50 Escherichia coli K12
Experimental: as §1, §2

[1] = tested on: mitochondrial cytochrome c oxidase subunit II (COX2) in Met5A cells; test: Immunoblotting of COX2 (mitochondrial protein synthesis); assay type: cell-based, human; settings: 60 μΜ, 48 h; compared to ZL34; result in words
Experimental: (§3) Cell lysates were prepared after treatment with 60 μΜ of conjugates for 48 h. Total cellular proteins were isolated at 4 °C using RIPA buffer (ABCAM) and mixed with 4% SDS-containing loading buffer. Protein concentrations were determined using Bradford assay. Lysates ([…]) were reduced in Laemmli buffer containing 1 mM dithiothreitol, resolved by 10% SDS-PAGE and electrotransfered to Immobilon-P PVDF membranes (Millipore, Massachusetts, USA) according to standard procedures. Blots were incubated at 4 °C overnight with rabbit monoclonal antibody against mitochondrial cytochrome c oxidase subunit II (COX2) (anti-mtCO2 antibody, ABCAM) at a 1:1000 dilution in blocking buffer. After washing with TBS-Tween and incubation with secondary antibody coupled to horse radish peroxidase, protein bands were visualized with ECL^TM chemiluminescence reagent (Amersham) and detected by autoradiography. The intensity of bands was quantified by Image Analysis, using the Image-Pro Plus 7 software (Media Cybernetics). Blots were re-probed with a mouse anti-actin antibody (Santa Cruz Biotechnology) to verify equal protein loading.

[2] = tested on: mitochondrial cytochrome c oxidase subunit II (COX2) in ZL34 cells; test: as above; assay type: cell-based, human; settings: 60 μΜ, 48 h; normalized to actin; result in words
Experimental: as §3

Met5A cells = test: Quantification of intracellular levels of conjugates and polyamines by RP-HPLC-DAD; assay type: cell-based, human; settings: Met5A cells treated with 60 μΜ of compound; for Intracellular compound concentration: mean ± SD, three repetitions
Experimental: (§4) PAs and conjugates 3 and 4 in ZL34 and Met5A cells were determined by reverse phase high-performance liquid chromatography (RP-HPLC-DAD), as described previously. Briefly, 100 mg cells (wet weight), either ZL34 or Met5A, which were grown in the presence of 60 μΜ of conjugates, were washed and then homogenized in 0.6 M HClO4. Cultures grown in the absence of the conjugates were used as reference. In the isolates, hexamethylenediamine dihydrochloride was added as an internal standard, followed by dansylation and subsequent extraction by toluene. The extracts were dried, reconstituted in acetonitrile/10 mM phosphate buffer pH 4.4 (45:55 v/v) and filtered through a 0.2-μm membrane (Spartan 13/0.2 RC Whatman GmbH, Dassel, Germany) prior to HPLC analysis. The HPLC system included a Varian Star 9010 solvent delivery system with a 250 × 4.6 mm Luna 5 μm C18(2) 100 A column (Phenomenex Co., USA) and a photodiode array detector (Shimadzu SPDM20A).
(§5) The flow rate was set at 1.0 mL/min. Polyamines were quantified at 258 nm and the conjugates at 275 nm. The detection limits for PUT, SPD, and SPM were 52 pmol, 18 pmol, and 36 pmol at 258 nm, respectively. The detection limits for compounds 3 and 4 were 25 pmol and 30 pmol at 275 nm, respectively. All experiments were run in triplicate. The coefficients of variation (C.V.) of the intra-assays were 5–7%, while those of the inter-assays ranged from 13 to 17%. LC Solution Software (Shimadzu) was used for data processing and the results were expressed as nmol/mg protein.

ZL34 cells = test: as above; assay type: cell-based, human; settings: ZL34 cells treated with 60 μΜ of compound; for Intracellular compound concentration: mean ± SD, three repetitions
Experimental: as §4, §5

ZL34 mesothelioma cells = assay type: cell-based, human
Experimental: as §1
(§6) The antitumor activity of the conjugates was assessed using the human ZL34 and MeT5A cell lines as previously described. ZL34 and Met5A cells were plated in sterile 6-well microtiter plates and grown in Dulbecco’s modified Eagle’s medium (DMEM), supplemented with 10% heat-inactivated fetal bovine serum and 1% penicillin/streptomycin. Cultures were maintained in a humidified atmosphere with 5% CO2 at 37 °C. Compounds 3 and 4 were added at final concentrations of 30 and 60 μΜ, and then cells were grown for 24, 72 and 96 h. In parallel, solutions of conjugates combined with a ten-fold concentration of SPD were incubated under the same conditions. After treatment, the drug was removed by washing the cells twice with phosphate-buffered saline (PBS). The cells were then trypsinized (0.5 mL trypsin-EDTA×1 solution/well, 5 min at 37 °C), mixed with 1 mL DMEM and collected by centrifugation at 3000 × g for 5 min. Cell viabilities were determined by the trypan blue exclusion assay, using a TC10 automated cell counter (BIORAD). Viable cells were expressed as a percentage of total cells.

[3] = tested on: Met5A mesothelial immortalized cells; assay type: cell-based, human
Experimental: as §1, §6

[4] = wild-type strain, mean ± SD, three independent experiments

| SMILES | Ki (E. coli 70S ribosome) [µM] | EC50 (Escherichia coli ΔTolC) [µM] | EC50 (Staphylococcus aureus) [µM] | EC50 (Escherichia coli K12) [µM] | COX2 levels in Met5A cells [1] | COX2 expression in tumor cells (ZL34) [2] | PUT intracellular level (Met5A cells) [nmol/mg Protein] | SPD intracellular level (Met5A cells) [nmol/mg Protein] | SPM intracellular level (Met5A cells) [nmol/mg Protein] | Intracellular compound concentration (Met5A cells) [μΜ] | PUT intracellular level (ZL34 cells) [nmol/mg Protein] | SPD intracellular level (ZL34 cells) | SPM intracellular level (ZL34 cells) | Intracellular compound concentration (ZL34 cells) [μΜ] | EC50 (Staphylococcus aureus; [4]) [µM] | Cytotoxicity / antiproliferative activity on ZL34 cancer cells (ZL34 mesothelioma cells) | Cytotoxicity on immortalized Met5A cells [3] |
| --- | --- | --- | --- | --- | --- | --- | --- | --- | --- | --- | --- | --- | --- | --- | --- | --- | --- |
| O=C(N[C@H](CO)[C@H](O)c1ccc([N+](=O)[O-])cc1)C(Cl)Cl [CAM, Chloramphenicol] | 1.5 ± 0.1 | 2.3 ± 0.6 | 3.4 ± 0.3 | 6.2 ± 0.5 | – | – | – | – | – | – | – | – | – | – | – | – | – |
| NCCCN(CCCCN(Cc1ccccc1)Cc1ccccc1)C(=O)CCC(=O)N[C@H](CO)[C@H](O)c1ccc([N+](=O)[O-])cc1 [Compound 3] | 0.8 ± 0.1 | 8.9 ± 0.7 | – | 11 ± 0.9 | affected to a lesser extent | significant decrease | 7.38 ± 1.93 | 7.38 ± 1.85 | 22.50 ± 3.11 | 3.75 ± 0.60 | 1.58 ± 0.13 | 4.18 ± 1.87 ^1 nmol/mg Protein | 2.71 ± 1.17 ^2 nmol/mg Protein | 5.96 ± 0.92 | 6.8 ± 0.5 | – | – |
| O=C(CCC(=O)N(CCCCN(Cc1ccccc1)Cc1ccccc1)CCCN(Cc1ccccc1)Cc1ccccc1)N[C@H](CO)[C@H](O)c1ccc([N+](=O)[O-])cc1 [Compound 4] | 1.1 ± 0.1 | > 200 | – | > 200 | affected to a lesser extent | significant decrease | 5.60 ± 1.10 | 8.14 ± 2.16 | 25.80 ± 6.57 | 7.40 ± 0.80 | 2.07 ± 0.91 | 5.36 ± 2.15 ^1 nmol/mg Protein | 3.17 ± 1.70 ^2 nmol/mg Protein | 29.00 ± 2.53 | > 200 | demonstrated cytotoxicity | milder action |
| O=C(CCC(=O)N[C@H](CO)[C@H](O)c1ccc([N+](=O)[O-])cc1)NCCCCN(Cc1ccccc1)Cc1ccccc1 [Compound 5] | 2.6 ± 0.3 | > 200 | – | > 200 | – | – | – | – | – | – | – | – | – | – | > 200 | did not show any important antiproliferative activity | – |
| O=C(CCC(=O)N[C@H](CO)[C@H](O)c1ccc([N+](=O)[O-])cc1)NCCCCCCN(Cc1ccccc1)Cc1ccccc1 [Compound 6] | 1.3 ± 0.2 | > 200 | – | > 200 | – | – | – | – | – | – | – | – | – | – | > 200 | did not show any important antiproliferative activity | – |
| O=C(CCC(=O)N[C@H](CO)[C@H](O)c1ccc([N+](=O)[O-])cc1)NCCCN(Cc1ccccc1)Cc1ccccc1 [Compound 7] | 1 ± 0.1 | > 200 | – | > 200 | – | – | – | – | – | – | – | – | – | – | > 200 | did not show any important antiproliferative activity | – |
